Key:
[1] = oral; cited from earlier work
[2] = test system: Ventricular tachycardia (VT) induced by rapid ventricular pacing; test: In vivo ventricular pacing study: conversion of ventricular tachycardia induced by rapid ventricular pacing; design: species or system dog (male mongrel dogs); conditions: for Peak % Increase in VT Threshold / Conversion: mean ± standard error; for Peak % Increase in VT Threshold: same patches: lidocaine/Tecoflex, procainamide/Thyomer, amiodarone/Thyomer with polyethyleneglycol, NiCl2/Thyomer; for Effectiveness in converting ventricular tachycardia: in words, controlled release dosage form, epicardial; for Conversion: patches: lidocaine 28% in Tecoflex (N 16), procainamide 30% in Thyomer (7), amiodarone 30% in Thyomer with 10% polyethyleneglycol 200 (3), NiCl2 50% in Thyomer (4)
Text: Ventricular tachycardia was induced and maintained by rapid ventricular pacing in an open-chest dog model using male mongrel dogs (10-15 kg). Three sets of bipolar epicardial electrodes were placed at 2 cm distances from the left ventricular apex toward the base of the heart. A Grass Model 8 stimulator (Grass Instruments, delivered continuous electrical stimulation as 2-msec square wave impulses with a 50-msec cycle length via a stimulus isolation unit (Bloom Associates, Reading, Pa.). The stimulus isolation unit also repeatedly monitored the pacing current thresholds. After induction of ventricular tachycardia, a controlled release dosage form of the present invention in the shape of a patch of the drug-loaded polymeric matrix material was placed adjacent to the stimulating electrode. The time required to convert the ventricular tachycardia to sinus rhythm was measured, as well as the time course of the quantitative change for sustaining the induction of ventricular tachycardia. The effects of controlled release were monitored for up to 4 hours after conversion to normal sinus rhythm.
All other dosage forms were fabricated by dissolving the therapeutic agent in dimethylacetamide at a concentration of 100 mg/ml therapeutic agent. This solution was further dissolved in a 10% solution of a Thyomer polyurethane and solvent cast into a 0.2 mm films. […] Controls comprised patches of each polymeric matrix material.

[3] = test system: Ischemia-induced ventricular tachycardia; test: In vivo acute ischemia-induced ventricular tachycardia study; design: species or system dog; conditions: for VT (per/minute): number of VT episodes per minute following epicardial placement: average for N dogs, patches (dose mg/kg/2hr): lidocaine 28% Tecoflex (0.23, N 5), propranolol 30% MPU-5 (0.14, 6), D-sotalol 30% MPU-5 (0.20, 9), verapamil 30% MPU-5 (0.30, 11); for Effectiveness against ischemia-induced ventricular tachycardia: in words, epicardial controlled release
Description: Controlled release dosage forms of the present invention have been successful in preventing ischemia-induced ventricular tachycardia in a canine model. Ventricular occlusions of the left anterior descending coronary artery of a dog were produced by exposing and isolating the artery in a dog under anesthesia. A snare with a sliding closure was placed around the artery. Ventricular tachycardia was produced by closing the snare for 10 minutes to shut off the blood supply to left ventricle. The snare was opened for an hour, and then the snare was closed for 10 minutes. This procedure can be repeated up six times and simulates a heart attack. Ventricular tachycardia (VT) was defined as the occurrence of 3 or more sequential ventricular premature beats. The efficacy of various controlled release dosage forms of the present invention were documented by continuous recording of the electrophysiologic data on a Hewlett Packard Physiologic Records, and an 8-channel analogue tape deck (Hewlett Packard, Philadelphia, Pa.).
The data is expressed as the average for the number N of dogs per group. Episodes of VT were paced at one per minutes.

normal cardiac function = test: Other studies: effects of transmyocardial lidocaine on normal cardiac function; format: in vivo; conditions: lidocaine administered by transmyocardial route

| Compound | Peak % Increase in VT Threshold [2] [%] | VT (per/minute): number of VT episodes per minute following epicardial placement [3] | other results |
| --- | --- | --- | --- |
| CCCCc1oc2ccccc2c1C(=O)c1cc(I)c(OCCN(CC)CC)c(I)c1 [Amiodarone, amiodarone] | 36.1 ± 12.7 |  | Severe side effects, share of patients [1]: over 70% |
| CCN(CC)CC(=O)Nc1c(C)cccc1C [Lidocaine, lidocaine] | 367.7 ± 183.1 | 0.6 ± 0.2 per/minute | Other effects on normal cardiac function (normal cardiac function): no other significant effects on normal cardiac function |
| CC(C)NC[C@@H](O)c1ccc(NS(C)(=O)=O)cc1 [D-Sotalol, d-sotalol] |  | .046 ± .11 per/minute | Effectiveness against ischemia-induced ventricular tachycardia [3]: the most effective for arrhythmias due to acute myocardial ischemia |
| [Cl][Ni][Cl] [NiCl2, nickel chloride] | 122.6 ± 101.3 |  | Effectiveness in converting ventricular tachycardia [2]: effective to convert tachycardia to normal sinus rhythm; Conversion [2]: 2.08 ± 1.71 min |
| CC(C)NCC(O)COc1cccc2ccccc12 (stereo not shown) [Propranolol, propranolol] |  | 1.22 ± .12 per/minute |  |
| CCN(CC)CCNC(=O)c1ccc(N)cc1 [Procainamide, procainamide] | 206.7 ± 172.6 |  | Effectiveness in converting ventricular tachycardia [2]: effective in converting ventricular tachycardia; Conversion [2]: 4.05 ± 3.15 min |
| COc1ccc(CCN(C)CCCC(C#N)(c2ccc(OC)c(OC)c2)C(C)C)cc1OC (stereo not shown) [Verapamil, verapamil] |  | 0.10 ± .03 per/minute | Effectiveness against ischemia-induced ventricular tachycardia [3]: the most effective for arrhythmias due to acute myocardial ischemia |

From patent US5387419A, “System for controlled release of antiarrhythmic agents” (The University of Michigan, priority 1993, dated 1995)
